Consider 21 compounds from PubChem BioAssay AID602132 (Sanford-Burnham Center for Chemical Genomics, 2011).

Active and inactive are the calls of the source. No rule for the calls is given here.

Broadly, the IC50 is the concentration at which inhibition is half-maximal.

This experiment concerns the target glucose-6-phosphate dehydrogenase-6-phosphogluconolactonase [Plasmodium falciparum 3D7]. In words: inhibition of P. falciparum G6PD activity – biochemical, direct NADPH end-point detection, set 2, orthogonal assay for PfG6PD antimalarial inhibitor project, SAR follow-up (AID 602132). The following applies: recombinant PfG6PD.
Consider `O=C(NCCN1CCCCC1)c1ccc2c(c1)NC(=O)c1ccccc1S2`, for which the IC50 is 25.4 µM. `O=C(NCCN1CCOCC1)c1ccc2c(c1)NC(=O)c1ccccc1S2`: the IC50 was > 80 µM (inactive). Next, `CCN1CCCC1CNC(=O)c1ccc2c(c1)NC(=O)/C(=C/c1cccc(F)c1F)S2` (stereo unspecified): > 80 µM (inactive); `CCN1CCC[C@@H]1CNC(=O)c1ccc2c(c1)NC(=O)c1ccccc1S2`: 6.69 µM; `CCN(CC)CCCC(C)Nc1ccnc2cc(Cl)ccc12` (stereo unspecified): > 80 µM (inactive). Regarding `CCN1CCCC1CNC(=O)c1ccc2c(c1)NC(=O)/C(=C/c1ccc(F)cc1)S2` (stereo unspecified), the IC50 was > 80 µM (inactive). As for `CCC(C)N1CCCC1CNC(=O)c1ccc2c(c1)NC(=O)c1ccccc1S2` (stereo unspecified), the IC50 is > 80 µM (inactive). For `CC(C)(C)OC(=O)N1CCCC1CNC(=O)c1ccc2c(c1)NC(=O)/C(=C/c1ccccc1F)S2` (stereo unspecified) the value was > 80 µM (inactive). For `CCC(C)N(CCNC(=O)c1ccc2c(c1)NC(=O)c1ccccc1S2)C1CCCCC1` (stereo unspecified) the value was 25 µM; for `NCCNC(=O)c1ccc2c(c1)NC(=O)c1ccccc1S2`, > 80 µM (inactive). For `CCN1CCCC1CNC(=O)c1ccc2c(c1)NC(=O)/C(=C/c1c(F)cccc1F)S2` (stereo unspecified) the value was > 80 µM (inactive); for `CCN1CCCC1CNC(=O)c1ccc2c(c1)NC(=O)/C(=C/c1cccc(F)c1)S2` (stereo unspecified), > 80 µM (inactive); for `CCN1CCCC1CNC(=O)c1ccc2c(c1)NC(=O)C(Cc1ccccc1F)S2` (stereo unspecified), > 80 µM (inactive).

As for `O=C(NCCNC1CCCCC1)c1ccc2c(c1)NC(=O)c1ccccc1S2`, the IC50 is > 80 µM (inactive). For `CN(C)c1ccccc1CNC(=O)c1ccc2c(c1)NC(=O)/C(=C/c1ccccc1F)S2` the value was > 80 µM (inactive); for `NC1CCN(C(=O)c2ccc3c(c2)NC(=O)/C(=C/c2ccccc2F)S3)C1` (stereo unspecified), > 80 µM (inactive).

As to `CCCN1CCCC1CNC(=O)c1ccc2c(c1)NC(=O)/C(=C/c1ccccc1F)S2` (stereo unspecified), the IC50 is > 80 µM (inactive). For `O=C1Nc2cc(C(=O)NCC3CCCN3)ccc2S/C1=C\c1ccccc1F` (stereo unspecified) the value was > 80 µM (inactive). Next, `NC1CCN(C(=O)c2ccc3c(c2)NC(=O)c2ccccc2S3)C1` (stereo unspecified): > 80 µM (inactive). `CCN1CCCC1CNC(=O)c1ccc2c(c1)NC(=O)/C(=C/c1ccc3ccccc3c1)S2` (stereo unspecified): the IC50 was > 80 µM (inactive). Next, `CCN1CCC[C@H]1CNC(=O)c1ccc2c(c1)NC(=O)c1ccccc1S2`: 64.8 µM.
